Like-named read-outs stand apart in the source and are kept apart here.

The test relates to iTreg-mediated immunosuppression of CD8+ T-cell activation. Format: cell-based, human. The following applies: for Fold Change % IFNγ+ CD8+ Relative to No Compound Condition: 2 nM final concentration.

Consider `CN1CCCC1c1cccnc1` (stereo not shown) [nicotine], for which the “Fold Change % IFNγ+ CD8+ Relative to No Compound Condition” value by setting is: (donor BX23981, CD4+ T-cell:CD8+ T-cell ratio 1:2) 1.20 ± 0.038; (donor BX23981, CD4+ T-cell:CD8+ T-cell ratio 2:1) 0.88 ± 0.035; (donor BX24250, CD4+ T-cell:CD8+ T-cell ratio 1:2) 0.84 ± 0.10; (donor BX24250, CD4+ T-cell:CD8+ T-cell ratio 2:1) 1.07 ± 0.046; (donor BX26425, CD4+ T-cell:CD8+ T-cell ratio 1:1) 0.31 ± 0.089; (donor BX26425, CD4+ T-cell:CD8+ T-cell ratio 1:2) 0.42 ± 0.044. Moreover, the “Fold Change % IFNγ+ CD8+ Relative to No Compound Condition” value (donor BX26425, CD4+ T-cell:CD8+ T-cell ratio 2:1) is recorded as 0.18 ± 0.11; the “Fold Change % IFNγ+ CD8+ Relative to No Compound Condition” value (donor BX26825, CD4+ T-cell:CD8+ T-cell ratio 1:1) is given as 0.70 ± 0.10; the “Fold Change % IFNγ+ CD8+ Relative to No Compound Condition” value (donor BX26825, CD4+ T-cell:CD8+ T-cell ratio 1:2) is listed as 0.91 ± 0.14; the “Fold Change % IFNγ+ CD8+ Relative to No Compound Condition” value (donor BX27275, CD4+ T-cell:CD8+ T-cell ratio 1:1) came out at 1.16 ± 0.12; the “Fold Change % IFNγ+ CD8+ Relative to No Compound Condition” value (donor BX27275, CD4+ T-cell:CD8+ T-cell ratio 2:1) worked out at 1.38 ± 0.41; the “Fold Change % IFNγ+ CD8+ Relative to No Compound Condition” value (donor BX27275, CD4+ T-cell:CD8+ T-cell ratio 2:1 (first line)) is 0.9 ± 0.12. The “IFNγ+CD8+ T-cells in co-culture” value (final concentration of 2 nM, added at beginning of iTreg/CD8+ co-culture, read three days after co-culture) is listed as “trend of decreasing IFNγ+CD8+ T-cells”.

(Values after patent US20200360364A1, “METHODS AND COMPOSITIONS FOR TREATING INFLAMMATORY OR AUTOIMMUNE DISEASES OR CONDITIONS USING CHRNA6 ACTIVATORS” (Flagship Pioneering Innovations V, Inc., priority 2018, published 2020).)
